Experimental findings from US20240270821A1, “GIP/GLP1/GCG TRI-RECEPTOR AGONISTS AND USES THEREOF” (priority 2023, published 2024) are described below.

What all share (type): cell-based
The target in assay [1] is T1, hGIPR (Homo sapiens, UniProt P48546).
T1 sequence (P48546 22-466): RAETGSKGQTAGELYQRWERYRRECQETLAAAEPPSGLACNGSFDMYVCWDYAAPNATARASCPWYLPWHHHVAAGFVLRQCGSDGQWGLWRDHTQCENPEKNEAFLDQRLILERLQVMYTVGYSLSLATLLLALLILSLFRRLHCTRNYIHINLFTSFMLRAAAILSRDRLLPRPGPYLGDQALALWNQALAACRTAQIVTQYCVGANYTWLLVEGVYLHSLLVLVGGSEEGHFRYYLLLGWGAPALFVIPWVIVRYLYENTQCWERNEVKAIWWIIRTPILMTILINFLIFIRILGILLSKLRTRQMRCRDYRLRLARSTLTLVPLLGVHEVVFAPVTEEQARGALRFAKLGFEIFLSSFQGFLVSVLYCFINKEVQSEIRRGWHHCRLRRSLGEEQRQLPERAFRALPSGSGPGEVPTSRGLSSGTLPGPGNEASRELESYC
As to the kind of experiment: Functional cAMP activity in the presence of 1% HSA. The settings on record: read-out: cAMP Rel EC50, hGIPR.

The target of assay [2] is T2, hGLP-1R (Homo sapiens, UniProt P43220). Nature of the assay: Functional cAMP activity in the presence of 1% HSA. As to conditions: read-out: cAMP Rel EC50, hGLP-1R.
The target in a further assay is human GcgR (Homo sapiens, UniProt P47871). As to the kind of experiment: Functional cAMP activity in the presence of 1% HSA. The settings on record: read-out: cAMP Rel EC50, hGcgR.
The target in assay [3] is T1, hGIPR. As to the kind of experiment: Functional cAMP activation in the presence of 0.1% casein (no HSA). As to conditions: read-out: Relative cAMP EC50, hGIPR.
In assay [4] the target is T2, hGLP-1R. The description is as above. As to conditions: read-out: Relative cAMP EC50, hGLP-1R.
In the next assay the target is hGcgR (Homo sapiens, UniProt P47871). Described as above. The settings on record: read-out: Relative cAMP EC50, hGcgR.
Where [5] appears, read: 0.1% casein, no HSA, geometric mean.
Setting [6] is: in the presence of 0.1% casein (no HSA), geometric mean.

Read-outs that look alike come from different tables or passages of the source. Starred links: 1 amine or outer side, 2 acyl side, 3 side chain; linkers in the order of their positions; H or OH if unused. Non-standard residues stand in square brackets, D forms with d. Groups on a side chain read outwards from the residue. No end group written: not given here. *: point of attachment. C18 diacid = O=C(O)CCCCCCCCCCCCCCCCC(=O)*; αMePhe(2-F) = C[C@](N)(Cc1ccccc1F)C(=O)O; γGlu = O=C(O)[C@H](CCC(=O)[*:2])N[*:1]; αMe4Pal = C[C@](N)(Cc1ccncc1)C(=O)O; αMeY = C[C@](N)(Cc1ccc(O)cc1)C(=O)O; 4Pal = N[C@@H](Cc1ccncc1)C(=O)O; αMeL = CC(C)C[C@](C)(N)C(=O)O; αMeS = C[C@](N)(CO)C(=O)O; Orn = NCCC[C@H](N)C(=O)O; AEEA = NCCOCCOCC(=O)O; Aib = CC(C)(N)C(=O)O
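Throughout, for Relative cAMP EC50, hGIPR: intracellular cAMP rise after 30 min at 37 °C read by HTRF against a standard curve, scaled between buffer alone (0%) and top control ligand concentration (100%), four-parameter fit.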
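Throughout, for Relative cAMP EC50, hGLP-1R: intracellular cAMP rise after 30 min at 37 °C read by HTRF, normalized between buffer only (0%) and maximal control ligand (100%), four-parameter variable-slope fit.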
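Throughout, for Relative cAMP EC50, hGcgR: intracellular cAMP rise after 30 min at 37 °C, read by HTRF against a cAMP standard curve, scaled from buffer only (0%) to maximal control ligand response (100%).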

Sequence of hGcgR (P47871 26-477): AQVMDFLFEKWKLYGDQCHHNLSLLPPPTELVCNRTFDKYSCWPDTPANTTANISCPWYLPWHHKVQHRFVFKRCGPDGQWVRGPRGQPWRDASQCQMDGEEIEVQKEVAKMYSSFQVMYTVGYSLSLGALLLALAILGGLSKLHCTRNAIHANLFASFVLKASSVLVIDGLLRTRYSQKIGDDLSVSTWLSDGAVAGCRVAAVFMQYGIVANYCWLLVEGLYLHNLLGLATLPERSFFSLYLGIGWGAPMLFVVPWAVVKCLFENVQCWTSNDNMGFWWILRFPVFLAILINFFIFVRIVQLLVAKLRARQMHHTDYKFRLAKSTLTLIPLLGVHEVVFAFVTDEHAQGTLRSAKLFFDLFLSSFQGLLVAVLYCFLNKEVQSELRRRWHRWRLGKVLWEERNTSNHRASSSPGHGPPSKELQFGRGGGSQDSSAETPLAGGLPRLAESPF
Sequence of human GcgR (P47871 26-477): as above
T2 sequence (P43220 24-463): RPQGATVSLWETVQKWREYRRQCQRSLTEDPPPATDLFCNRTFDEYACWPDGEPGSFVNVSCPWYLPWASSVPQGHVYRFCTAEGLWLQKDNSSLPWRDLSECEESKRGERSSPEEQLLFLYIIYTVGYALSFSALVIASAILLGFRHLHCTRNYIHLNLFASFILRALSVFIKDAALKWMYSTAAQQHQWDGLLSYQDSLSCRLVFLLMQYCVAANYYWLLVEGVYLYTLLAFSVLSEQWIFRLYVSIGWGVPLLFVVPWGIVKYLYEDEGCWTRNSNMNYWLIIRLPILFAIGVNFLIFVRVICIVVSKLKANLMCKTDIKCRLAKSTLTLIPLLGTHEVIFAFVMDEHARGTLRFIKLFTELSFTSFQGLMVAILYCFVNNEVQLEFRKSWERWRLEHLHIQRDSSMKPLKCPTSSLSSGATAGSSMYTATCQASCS

Regarding “H-Y[Aib]QGT[αMePhe(2-F)]TSD[4Pal]SILLDKK([γGlu-γGlu-C18 diacid])AQ[Aib]AFIE[αMeY]LEEGGPSSGAPPPSGTE-NH2 [Example 551]”, the EC50 on hGIPR [1] amounted to 1.88 nM; at hGLP-1R [2] it was 38.2 nM; at human GcgR, 210 nM; at hGIPR [3], 0.0173 nM; on hGLP-1R [4], 0.303 nM; on hGcgR it was 1.74 nM.
For the compound “Y[Aib]QGT[αMePhe(2-F)]TSD[4Pal][αMeS]I[αMeL]LD[Orn][Orn]([AEEA-γGlu-C18 diacid])AQ[αMe4Pal]EFI[dE][αMeY]LVEGGPSSGAPPPSGS-NH2 [Example 1210]”, the EC50 at hGIPR [1] was 0.635 nM; at hGLP-1R [2], 38.1 nM; at human GcgR, 288 nM; at hGIPR [3] (setting [5]) it was 0.00704 nM; at hGLP-1R [4] (setting [5]) it was 0.375 nM; on hGcgR (setting [5]) it was 2.25 nM.
As to “H-Y[Aib]QGTFTSDFS[Orn][αMeL]LDKK([AEEA-γGlu-C18 diacid])AQ[Aib]AFIEYLLEGGESSGAPPPGGS-NH2 [Example 161]”, the EC50 amounted to 87.3 nM on hGIPR [1]; 963 nM at hGLP-1R [2]; 902 nM at human GcgR; 0.555 nM at hGIPR [3] (setting [6]); 5.22 nM at hGLP-1R [4] (setting [6]); 4.83 nM on hGcgR (setting [6]).
“H-Y[Aib]QGTFTSD[4Pal]SK[αMeL]LDKK([AEEA-γGlu-C18 diacid])AQ[Aib]AFIEYLIE[Aib]GPSSGAPPPSGSEE-NH2 [Example 902]”: the 50% effective concentration (EC50) came out at 28.5 nM at hGIPR [1]; 232 nM at hGLP-1R [2]; 1360 nM on human GcgR; 0.19 nM at hGIPR [3] (setting [6]); 2.58 nM on hGLP-1R [4] (setting [6]); 15.9 nM on hGcgR (setting [6]).
“Y[Aib]QGTFTSDFS[Orn][αMeL]LDKK([γGlu-γGlu-C18 diacid])AQ[Aib]AFIEYLLEGGPSSGAPPPSGT-NH2 [Example 260]”: the EC50 on hGIPR [1] was 12.4 nM; at hGLP-1R [2], 160 nM; at human GcgR, 162 nM; at hGIPR [3] (setting [6]), 0.251 nM; on hGLP-1R [4] (setting [6]) it was 3.85 nM; at hGcgR (setting [6]), 5.04 nM.
With “H-Y[Aib]QGTFTSDFS[Orn][αMeL]LDKK([AEEA-γGlu-C18 diacid])AQ[Aib]AFIEYLLAGGPSSGAPPPSGS[AEEA]-NH2 [Example 89]”, the EC50 on hGIPR [1] came to 19.3 nM; at hGLP-1R [2] it was 458 nM; on human GcgR it was 916 nM; at hGIPR [3] (setting [6]), 0.167 nM; at hGLP-1R [4] (setting [6]), 3.31 nM; on hGcgR (setting [6]), 11.6 nM.
For the compound `CC[C@H](C)[C@H](NC(=O)[C@H](Cc1ccccc1)NC(=O)[C@H](C)NC(=O)C(C)(C)NC(=O)[C@H](CCC(N)=O)NC(=O)[C@H](C)NC(=O)[C@H](CCCCNC(=O)COCCOCCNC(=O)CC[C@H](NC(=O)CCCCCCCCCCCCCCCCC(=O)O)C(=O)O)NC(=O)[C@H](CCCCN)NC(=O)[C@H](CC(=O)O)NC(=O)[C@H](CC(C)C)NC(=O)[C@](C)(CC(C)C)NC(=O)[C@@H](NC(=O)[C@H](CO)NC(=O)[C@H](Cc1ccc(O)cc1)NC(=O)[C@H](CC(=O)O)NC(=O)[C@H](CO)NC(=O)[C@@H](NC(=O)[C@](C)(Cc1ccccc1F)NC(=O)[C@@H](NC(=O)CNC(=O)[C@H](CCC(N)=O)NC(=O)C(C)(C)NC(=O)[C@@H](N)Cc1ccc(O)cc1)[C@@H](C)O)[C@@H](C)O)[C@@H](C)CC)C(=O)N[C@@H](CCC(=O)O)C(=O)N[C@@H](Cc1ccc(O)cc1)C(=O)N[C@@H](CC(C)C)C(=O)N[C@@H](CCC(=O)O)C(=O)N[C@@H](CCC(=O)O)C(=O)NCC(=O)NCC(=O)N1CCC[C@H]1C(=O)N[C@@H](CO)C(=O)N[C@@H](CO)C(=O)NCC(=O)N[C@@H](C)C(=O)N1CCC[C@H]1C(=O)N1CCC[C@H]1C(=O)N1CCC[C@H]1C(=O)N[C@@H](CO)C(=O)N[C@@H](CCC(=O)O)C(=O)NCC(N)=O` [Example 431], the half-maximal effective concentration (EC50) at hGIPR [1] was found to be 3.73 nM; on hGLP-1R [2], 35.2 nM; at human GcgR, 352 nM; on hGIPR [3] it was 0.0157 nM; at hGLP-1R [4], 0.392 nM; on hGcgR it was 3.32 nM.
In the case of “H-Y[Aib]QGTFTSD[4Pal]SQ[αMeL]LD[Orn]K([dE-γGlu-C18 diacid])AQ[αMe4Pal]AFIE[αMeY]LIAGGPSSGAPPPSGSEE-NH2 [Example 1074]”, the EC50 amounted to 8.49 nM at hGIPR [1]; 101 nM on hGLP-1R [2]; 1990 nM on human GcgR; 0.0745 nM at hGIPR [3] (setting [6]); 0.794 nM at hGLP-1R [4] (setting [6]); 22.8 nM on hGcgR (setting [6]).
For the compound “H-Y[Aib]QGTFTSD[4Pal]SQ[αMeL]LDKK([γGlu-γGlu-C18 diacid])AQ[αMe4Pal]AFIEYLIE[Aib]GPSSGAPPPEGE-NH2 [Example 884]”, the EC50 on hGIPR [1] was 23.5 nM; at hGLP-1R [2], 298 nM; at human GcgR it was 613 nM; on hGIPR [3] (setting [6]), 0.155 nM; at hGLP-1R [4] (setting [6]), 4.17 nM; at hGcgR (setting [6]) it was 3.82 nM.
For the compound “H-Y[Aib]QGT[αMePhe(2-F)]TSD[4Pal]SI[αMeL]LD[Orn]K([γGlu-γGlu-C18 diacid])AQ[αMe4Pal][Orn]FI[dE]YLIEGGPSSGEPPPEGT-NH2 [Example 541]”, the EC50 on hGIPR [1] was determined as 1.28 nM; at hGLP-1R [2], 38.7 nM; at human GcgR, 520 nM; on hGIPR [3], 0.0213 nM; at hGLP-1R [4], 0.74 nM; at hGcgR it was 4.26 nM.
“H-Y[Aib]QGTFTSD[4Pal]S[Orn][αMeL]LDKK([γGlu-γGlu-C18 diacid])AQ[αMe4Pal]AFIEYLIE[Aib]GPSSGAPPPSGS-NH2 [Example 865]”: the EC50 on hGIPR [1] stood at 10.8 nM; on hGLP-1R [2], 351 nM; at human GcgR, 248 nM; on hGIPR [3] (setting [6]), 0.0797 nM; on hGLP-1R [4] (setting [6]), 3.02 nM; on hGcgR (setting [6]) it was 1.48 nM.
Turning to “H-Y[Aib]QGTFTSD[4Pal]SQ[αMeL]LDKK([γGlu-γGlu-C18 diacid])AQ[αMe4Pal]AFIEYLIE[Aib]GPSSGAPPPSGSEEE-NH2 [Example 900]”, the concentration giving a half-maximal response (EC50) was determined as 17 nM on hGIPR [1]; 666 nM on hGLP-1R [2]; 885 nM at human GcgR; 0.173 nM on hGIPR [3] (setting [6]); 3.99 nM at hGLP-1R [4] (setting [6]); 4.74 nM on hGcgR (setting [6]).
In the case of “H-Y[Aib]QGT[αMePhe(2-F)]TSD[4Pal][αMeS]I[αMeL]LD[Orn]K([γGlu-γGlu-C18 diacid])AQ[Aib][Orn]FI[dE][αMeY]LAEGGPSSGEPPPSGTE-NH2 [Example 544]”, the EC50 at hGIPR [1] was determined as 2.4 nM; on hGLP-1R [2], 43 nM; on human GcgR, 171 nM; at hGIPR [3], 0.041 nM; at hGLP-1R [4], 0.623 nM; at hGcgR, 2.71 nM.
Take “H-Y[Aib]QGTFTSD[4Pal]SQ[αMeL]LDKK([dE-dE-γGlu-C18 diacid])AQ[αMe4Pal]AFIEYLIE[Aib]GPSSGAPPPSGS-NH2 [Example 921]”: the EC50 at hGIPR [1] was found to be 12.4 nM; on hGLP-1R [2] it was 261 nM; at human GcgR it was 2130 nM; on hGIPR [3] (setting [6]), 0.228 nM; on hGLP-1R [4] (setting [6]), 3.73 nM; at hGcgR (setting [6]) it was 10.4 nM.
For the compound “Y[Aib]QGTFTSD[4Pal]SQ[αMeL]LDKK([AEEA-γGlu-C18 diacid])AQ[αMe4Pal]AFIEWLIEGGPSSGAPPPSG[4Pal]-NH2 [Example 832]”, the EC50 at hGIPR [1] was determined as 18.6 nM; at hGLP-1R [2], 209 nM; at human GcgR, 1360 nM; at hGIPR [3] (setting [6]) it was 0.187 nM; at hGLP-1R [4] (setting [6]), 1.07 nM; on hGcgR (setting [6]), 9.1 nM.

One may read the EC50 as the midpoint of the concentration-response curve.
